{"source": "patent US9896422B2", "about": "“Tetracycline derivatives with reduced antibiotic activity and neuroprotective benefits” (Neumedics, priority 2008, dated 2018)", "key": {"E. Coli": {"test_system": "E. Coli", "assay": "Antimicrobial susceptibility (zone of inhibition) test, Kirby-Bauer disc diffusion", "type": "cell-based", "conditions": "samples 30 ug/ml, Muller-Hinton agar, about 24 hrs", "experimental": "(§1) Anti-microbial susceptibility (zone of inhibition) tests were conducted by an outside analytical laboratory. The Kirby-Bauer or disc diffusion method of assessing antimicrobial activity is an established literature procedure and was used with some modifications to the standard protocol: 1) S. Aureus and E. Coli were grown in Muller-Hinton broth and incubated at 30-35° C. for 18-24 hrs, 2) samples were diluted in sterile water for injections or pure water to achieve a concentration of 30 ug/ml and were plated in triplicate, and 3) the test plates were prepared using Muller-Hinton agar and incubated at 30-35° C. for approximately 24 hrs.\n(§2) The diameters of the zone of inhibition (if present) around the test sample were measured using calibrated calipers. […] 3a has some activity (average zone of 24.45 mm) against S. Aureus."}, "S. Aureus": {"test_system": "S. Aureus", "assay": "Antimicrobial susceptibility (zone of inhibition) test, Kirby-Bauer disc diffusion", "type": "cell-based", "conditions": "for The diameter of the zone including sample: S. Aureus, samples 30 ug/ml, Muller-Hinton agar, about 24 hrs, average of triplicate; for antimicrobial activity in this assay: disc diffusion, S. Aureus and E. Coli, 30 ug/ml", "experimental": "as §1, §2"}, "[1]": {"assay": "Intravenous blood brain barrier (BBB) penetration assay in mice", "type": "in vivo, CD-1 mice", "conditions": "1 mg/kg tail-vein", "experimental": "Intravenous blood brain barrier (BBB) penetration of Compounds 38 and 3b in mice was assessed by an outside analytical laboratory using the standard protocol. CD-1 mice were tail-vein injected with 38 or 3b (1 mg/kg, n=3), and the plasma and brain samples were collected at 30, 60 and 180 min time intervals. The concentration of 38 and 3b in brain (ng/g tissue), plasma and the ratio of the brain concentration at each time point were determined by acetonitrile precipitation of the test compounds from the samples followed by HPLC-MS?MS analysis.\nAfter treatment of the animals with the test compounds, plasma samples were collected by cardiac puncture. Blood aliquots (300-400 μL) were collected in lithium heparincoated tubes, mixed gently, then kept on ice and centrifuged at 2,500×g for 15 minutes at 4° C. within 1 hour of collection. Plasma was then harvested and kept frozen at −20° C. until further processing.\nImmediately after blood sampling, mice were decapitated and the whole brains were quickly removed, rinsed with cold saline (0.9% NaCl, g/mL), surface vasculature ruptured, blotted with dry gauze weighed and kept on ice until further processing within 1 hour of collection. Each brain was homogenized in 1.5 mL cold phosphate-buffered saline, pH 7.4, for 10 seconds on ice using a POWERGEN 125 homogenizer. Each sample was then stored at −20° C. until further processing.\nBrain homogenates collected as above were processed by adding an equal volume of chilled 26% (g/mL) neutral Dextran (average MW 65,000-85,000, from Sigma, catalog number D-1390) solution to obtain a final Dextran concentration of 13%. The homogenate was centrifuged at 5400×g for 15 minutes at 4° C. Supernatents were subsequently processed using acetonitrile precipitation and analyzed by HPLC-MS. A brain calibration curve was generated by spiking drug-free brain homogenate from the control animals with test compound at specified concentration levels. The spiked brain homogenate samples were processed together with the unknowns using the same procedure. Processed brain samples were stored frozen (−20° C.) until LC-MS/MS analysis.\nPlasma samples collected as above were processed and analyzed as for the brain homogenate supernatents described above.\nAfter processing, all samples were analyzed using HPLC-MS/MS analysis. HPLC analysis employed a Synergi Max-RP 80 HPLC column (2×50 mm, 4 μm, Phenomenex Part No. 00B-4337-B0), using a first mobile phase of 13.3 mM ammonium formate/6.7 mM formic acid in water, and a second mobile phase of 6 mM ammonium formate/3 mM formic acid in water/CH3CN (1/9, v/v). MS/MS analysis was done on a TSQ QUANTUM with selected reaction monitoring, positive ion mode, using a capillary temperature of 325° C. and a capillary voltage of 4.0 kV. Peak areas were recorded, and the concentrations of the test compound in the unknown brain samples were determined using the respective calibration curves."}, "[2]": {"assay": "Stability testing in solution", "type": "physicochemical", "conditions": "de-ionized water, saline and PBS at pH of about 3 to 7.5", "experimental": "Compounds of the present invention will be stable in solution and/or in powder form. To test for stability in different solutions (e.g., de-ionized water, de-ionized water adjusted with K2HPO4 to pH 7.4, de-ionized water adjusted with NaOH to pH 9, saline solution or PBS). The compounds are tested for degradation at different times at different temperatures. By way of example, compound 3b was stable in de-ionized water saline and PBS at pH of about 3 to 7.5."}}, "note": "Like-named read-outs stand apart in the source and are kept apart here."}
{"smiles": "CN(C)c1cc2ncoc2c2c1C[C@H]1C[C@H]3[C@H](N(C)C)C(O)=C(C(N)=O)C(=O)[C@@]3(O)C(O)=C1C2=O", "note": "[Compound 3a, (6aR,7aS,8S,11aS)-5,8-bis(dimethylamino)-9,11a,12trihydroxy-11,13-dioxo-6,6a,7,7a,8,11,11a,13-octahydrotetraceno[2,1-d]oxazole-10carboxamide]", "values": [{"measurement": "The diameter of the zone including sample", "setting": "E. Coli", "value": "no zone"}]}
{"smiles": "CN(C)c1cc2[nH]c(=O)oc2c2c1C[C@H]1C[C@H]3[C@H](N(C)C)C(O)=C(C(N)=O)C(=O)[C@@]3(O)C(O)=C1C2=O", "note": "[Compound 3b, (6aR,7aS,8S,11aS)-5,8bis(dimethylamino)-9,11a,12-trihydroxy-2,11,13-trioxo-2,3,6,6a,7,7a,8,11,11a,13decahydrotetraceno[2,1-d]oxazole-10-carboxamide]", "values": [{"measurement": "The diameter of the zone including sample", "setting": "E. Coli", "value": "no zone"}, {"measurement": "The diameter of the zone including sample", "setting": "S. Aureus", "value": "no zone"}, {"measurement": "antimicrobial activity in this assay", "setting": "S. Aureus", "value": "no antimicrobial activity"}, {"measurement": "blood brain barrier penetration in vivo", "setting": "[1]", "value": "acceptable"}, {"measurement": "concentration in the brain", "setting": "[1]; 180 min, n=3", "value": "below the limit of quantitation"}, {"measurement": "concentration at 30 min", "setting": "[1]; CD-1, mouse, brain, intravenous, 30 min, n=3, read-out: concentration in the brain", "value": 6.7, "unit": "ng/g"}, {"measurement": "concentration at 60 min", "setting": "[1]; CD-1, mouse, brain, intravenous, n=3, read-out: concentration in the brain", "value": 5.8, "unit": "ng/g"}, {"measurement": "Kp at 0.5 h", "setting": "[1]; CD-1, mouse, brain/plasma, intravenous, 30 min, read-out: Calculated ratio of brain to plasma concentration", "value": 0.07}, {"measurement": "concentration at 30 min", "setting": "[1]; CD-1, mouse, plasma, intravenous, 30 min, n=3, read-out: Plasma concentration", "value": 97, "unit": "ng/mL"}, {"measurement": "concentration at 60 min", "setting": "[1]; CD-1, mouse, plasma, intravenous, n=3, read-out: Plasma concentration", "value": 27, "unit": "ng/mL"}, {"measurement": "concentration at 180 min", "setting": "[1]; CD-1, mouse, plasma, intravenous, 180 min, n=3", "value": 4, "unit": "ng/mL"}, {"measurement": "stability in solution", "setting": "[2]", "value": "stable"}]}
{"smiles": "CN(C)c1cc2c(c3c1C[C@H]1C[C@H]4[C@H](N(C)C)C(O)=C(C(N)=O)C(=O)[C@@]4(O)C(O)=C1C3=O)OCC(=O)N2", "note": "[Compound 38, (6aR,7aS,8S,11aS)-5,8-bis(dimethylamino)-9,11a,12-trihydroxy-2,11,13trioxo-2,3,6,6a,7,7a,8,11,11a,13-decahydrotetraceno[2,1-d]morpholine-10-carboxamide]", "values": [{"measurement": "The diameter of the zone including sample", "setting": "E. Coli", "value": "no zone"}, {"measurement": "The diameter of the zone including sample", "setting": "S. Aureus", "value": "no zone"}, {"measurement": "antimicrobial activity in this assay", "setting": "S. Aureus", "value": "no antimicrobial activity"}]}
